Experiments:
human JAK2 = biological target: T1, human JAK2 (Homo sapiens, UniProt O60674); experiment: Alphascreen tyrosine kinase enzyme assay, JAK2 kinase domain; type: biochemical; conditions: read-out: JAK2 IC50_nM
T1 construct: The kinase domain of human JAK2 was amplified; GST (N); made in house; host or cells: Sf9 insect cells (baculovirus)
Outline: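 JAK2 kinase domain expressed in baculovirus/Sf9 and glutathione-affinity purified. Compounds (final […]) pre-incubated 20 min with enzyme in 10 mM HEPES pH 7.5, MgCl2, NaCl, vanadate, 0.1% Tween 20.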

CTLL2 = experiment: Cellular screening, CTLL2 cells, Alamar Blue; type: cell-based; conditions: Mus musculus, CTLL-2, read-out: CTLL2 IC50_nM
Outline: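 CTLL2 cells in late log phase incubated with compound for 40 hr at 37° C, 5% CO2. Viability then read at 544 nm after a further 4-6 hours with Alamar Blue.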

[1] = biological target: T2, BaF3 TELJAK2 cells (BafT_J2) (Homo sapiens, UniProt O60674); experiment: Cellular screening, BaF3 TEL:JAK2 cells, Alamar Blue; type: cell-based; conditions: 40 hr, read-out: BafT_J2 IC50_nM
T2 construct: fused on or other part: TEL (ETV6) N-terminal part, coding nucleotides 1-487, serves as the oligomerising partner; It is fused through a Sal I site to the JAK2 kinase domain and expressed from pTRE2 in BaF3 cells bearing pTET-off; P41212 (Transcription factor ETV6)
Outline: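 Tet-off BaF3 cells carrying a TEL (nt 1-487)–JAK2 kinase-domain fusion, grown factor-independently in DMEM with 10% Tet-approved FBS without WEHI 3B medium. Compounds were diluted to 20 μM in screening plates, and cells (50,000–200,000 cell/mL at 1.1×) were incubated 40 hr at 37 °C, 5% CO2. Alamar Blue was then added for 4-6 hours; read at 544 nm.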

BaF3 wild-type cells = experiment: Cellular screening, BaF3 wild-type cells, Alamar Blue; type: cell-based; conditions: Mus musculus, 40 hr, read-out: BAF3wt IC50_nM
Outline: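 Cells were cultured in DMEM with 10% FCS and 10% WEHI 3B conditioned medium, and suspensions were prepared at 1.1× final (50,000–200,000 cells/mL). Compounds from 20 μM dilution plates were added at 10× final and incubated for 40 hr at 37° C, 5% CO2. Alamar Blue was then added for 4–6 hours and read at 544 nm.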

human JAK3 = biological target: T3, human JAK3 (Homo sapiens, UniProt P52333); experiment: Alphascreen tyrosine kinase enzyme assay, JAK3 kinase domain; type: biochemical; conditions: read-out: JAK3 IC50_nM
T3 construct: The kinase domain of human JAK3 was amplified; GST (N); made in house; host or cells: Sf9 insect cells (baculovirus)
Outline: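 GST-affinity-purified human JAK3 kinase domain (baculovirus/Sf9) was pre-incubated 20 min with compound ([…]) in HEPES pH 7.5 buffer with MgCl2, vanadate and Tween 20. Biotinylated peptide substrate ([…]) and ATP were then added; phosphotyrosine was detected by AlphaScreen PY100 acceptor and streptavidin donor beads after 2–3 h.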

T2 sequence (O60674 whole entry, change not shown, the tested form may be a part): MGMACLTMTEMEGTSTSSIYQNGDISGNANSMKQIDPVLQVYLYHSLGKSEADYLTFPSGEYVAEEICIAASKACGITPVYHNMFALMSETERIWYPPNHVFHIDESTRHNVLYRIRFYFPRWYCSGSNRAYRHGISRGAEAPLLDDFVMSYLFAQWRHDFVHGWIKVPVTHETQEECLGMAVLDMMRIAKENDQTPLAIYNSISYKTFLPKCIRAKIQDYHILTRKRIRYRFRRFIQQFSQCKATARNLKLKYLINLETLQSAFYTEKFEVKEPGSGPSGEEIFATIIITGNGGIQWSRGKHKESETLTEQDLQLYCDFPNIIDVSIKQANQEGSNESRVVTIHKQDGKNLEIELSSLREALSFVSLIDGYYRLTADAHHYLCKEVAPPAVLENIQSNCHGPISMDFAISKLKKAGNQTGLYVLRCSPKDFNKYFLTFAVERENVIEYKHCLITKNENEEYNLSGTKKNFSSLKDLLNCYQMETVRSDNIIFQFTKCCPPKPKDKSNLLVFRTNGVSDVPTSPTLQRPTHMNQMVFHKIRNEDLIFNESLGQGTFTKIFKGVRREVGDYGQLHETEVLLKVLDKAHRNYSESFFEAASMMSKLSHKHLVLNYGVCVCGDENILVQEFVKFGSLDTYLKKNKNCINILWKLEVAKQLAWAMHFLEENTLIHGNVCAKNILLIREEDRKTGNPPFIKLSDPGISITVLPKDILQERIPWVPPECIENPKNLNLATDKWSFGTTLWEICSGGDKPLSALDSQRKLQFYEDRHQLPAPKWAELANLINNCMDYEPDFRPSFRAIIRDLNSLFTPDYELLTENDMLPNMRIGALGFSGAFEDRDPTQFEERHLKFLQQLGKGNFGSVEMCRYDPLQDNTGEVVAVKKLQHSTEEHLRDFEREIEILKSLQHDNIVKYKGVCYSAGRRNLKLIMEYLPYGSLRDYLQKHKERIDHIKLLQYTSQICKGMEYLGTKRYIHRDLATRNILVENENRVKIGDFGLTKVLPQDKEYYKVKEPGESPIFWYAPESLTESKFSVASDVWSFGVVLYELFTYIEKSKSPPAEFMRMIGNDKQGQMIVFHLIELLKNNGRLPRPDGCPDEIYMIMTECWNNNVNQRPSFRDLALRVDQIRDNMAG
T3 sequence (P52333 822-1111 limits assumed): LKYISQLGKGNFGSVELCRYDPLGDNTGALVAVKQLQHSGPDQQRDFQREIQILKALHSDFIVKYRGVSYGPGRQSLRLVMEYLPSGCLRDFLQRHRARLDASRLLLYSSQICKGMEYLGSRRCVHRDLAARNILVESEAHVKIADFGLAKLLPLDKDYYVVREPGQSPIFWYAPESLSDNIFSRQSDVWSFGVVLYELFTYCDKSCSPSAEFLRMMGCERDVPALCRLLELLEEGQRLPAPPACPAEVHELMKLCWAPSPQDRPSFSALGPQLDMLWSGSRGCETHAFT
T1 sequence (O60674 849-1124 limits assumed): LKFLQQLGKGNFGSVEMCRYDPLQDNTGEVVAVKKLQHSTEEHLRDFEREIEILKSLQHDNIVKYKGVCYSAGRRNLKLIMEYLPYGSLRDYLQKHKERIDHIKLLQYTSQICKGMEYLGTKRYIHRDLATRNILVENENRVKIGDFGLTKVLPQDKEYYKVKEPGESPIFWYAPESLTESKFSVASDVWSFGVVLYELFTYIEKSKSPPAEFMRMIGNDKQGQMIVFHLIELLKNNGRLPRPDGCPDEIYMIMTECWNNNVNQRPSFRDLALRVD

C=CC(=O)Nc1ccc(Sc2nc(Nc3cccc(OC(F)(F)F)c3)ncc2C)cc1 [Compound 289, N-(4-(5-methyl-2-(3-(trifluoromethoxy)phenylao)pyrimidin-4-ylthio)phenyl)acrylamide]
IC50 (human JAK2): > 1 µM | IC50 (CTLL2): < 1 µM | GI50 [1]: < 20 µM | IC50 (BaF3 wild-type cells): > 20 µM | IC50 (human JAK3): < 0.1 µM

C=CC(=O)Nc1ccc(Sc2ccnc(Nc3ccc(S(=O)(=O)N4CCN(C)CC4)cc3)n2)cc1 [Compound 370, N-(4-(2-(4-(4-methylpiperazin-1-ylsulfonyl)phenylao)pyrimidin-4-ylthio)phenyl)acrylamide]
IC50 (human JAK2): > 1 µM | IC50 (CTLL2): < 5 µM | GI50 [1]: < 20 µM | IC50 (BaF3 wild-type cells): < 20 µM | IC50 (human JAK3): < 0.1 µM

COc1ccc(Nc2nccc(Sc3ccc(NC(=O)CC#N)cc3)n2)cc1OC [Compound 101, 2-cyano-N-(4-(2-(3,4-dimethoxyphenylao)pyrimidin-4-ylthio)phenyl)acetamide]
IC50 (human JAK2): > 1 µM | IC50 (CTLL2): < 20 µM | GI50 [1]: < 5 µM | IC50 (BaF3 wild-type cells): < 1 µM | IC50 (human JAK3): > 1 µM

C=CC(=O)Nc1ccc(Sc2nc(Nc3ccc(N4CCOCC4)cc3)ncc2C)cc1 [Compound 124, N-(4-(5-methyl-2-(4-morpholinophenylao)pyrimidin-4-ylthio)phenyl)acrylamide]
IC50 (human JAK2): > 1 µM | IC50 (CTLL2): < 1 µM | GI50 [1]: > 20 µM | IC50 (BaF3 wild-type cells): > 20 µM | IC50 (human JAK3): < 0.1 µM

Cc1cnc(Nc2ccc(N3CCOCC3)cc2)nc1Sc1ccc(NC(=O)/C=C/C(=O)O)cc1 [Compound 387, (E)-4-(4-(5-methyl-2-(4-morpholinophenylao)pyrimidin-4-ylthio)phenylao)-4-oxobut-2-enoic acid]
IC50 (human JAK2): < 1 µM | IC50 (CTLL2): > 20 µM | GI50 [1]: > 20 µM | IC50 (BaF3 wild-type cells): > 20 µM | IC50 (human JAK3): < 0.1 µM

CC#CC(=O)Nc1ccc(Sc2nc(Nc3ccc(N4CCOCC4)cc3)ncc2C)cc1 [Compound 125, N-(4-(5-methyl-2-(4-morpholinophenylao)pyrimidin-4-ylthio)phenyl)but-2-ynamide]
IC50 (human JAK2): > 1 µM | IC50 (CTLL2): < 5 µM | GI50 [1]: < 20 µM | IC50 (BaF3 wild-type cells): > 20 µM | IC50 (human JAK3): < 0.1 µM

C=CC(=O)Nc1ccc(Sc2ccnc(Nc3cccc(S(=O)(=O)N4CCN(C)CC4)c3)n2)cc1 [Compound 365, N-(4-(2-(3-(4-methylpiperazin-1-ylsulfonyl)phenylao)pyrimidin-4-ylthio)phenyl)acrylamide]
IC50 (human JAK2): > 1 µM | IC50 (CTLL2): < 20 µM | GI50 [1]: < 20 µM | IC50 (BaF3 wild-type cells): < 20 µM | IC50 (human JAK3): < 0.1 µM

CC#CC(=O)Nc1ccc(Sc2ccnc(Nc3ccc(N4CCOCC4)cc3)n2)cc1 [Compound 104, N-(4-(2-(4-morpholinophenylao)pyrimidin-4-ylthio)phenyl)but-2-ynamide]
IC50 (human JAK2): > 1 µM | IC50 (CTLL2): < 5 µM | GI50 [1]: > 20 µM | IC50 (BaF3 wild-type cells): > 20 µM | IC50 (human JAK3): < 0.1 µM

O=C(Nc1ccc(Sc2ccnc(Nc3ccc(N4CCOCC4)cc3)n2)cc1)C1CC1(F)Cl (stereo not shown) [Compound 378, 2-chloro-2-fluoro-N-(4-(2-(4-morpholinophenylao)pyrimidin-4-ylthio)phenyl)cyclopropanecarboxamide]
IC50 (human JAK2): > 1 µM | IC50 (CTLL2): > 20 µM | GI50 [1]: < 1 µM | IC50 (BaF3 wild-type cells): < 1 µM | IC50 (human JAK3): < 0.5 µM

CSc1nc(Nc2ccc(N3CCOCC3)cc2)ncc1C [Compound 176, 5-methyl-4-(methylthio)-N-(4-morpholinophenyl)pyrimidin-2-ae]
IC50 (human JAK2): < 1 µM | IC50 (CTLL2): < 5 µM | GI50 [1]: < 5 µM | IC50 (BaF3 wild-type cells): < 5 µM | IC50 (human JAK3): < 1 µM

C=CC(=O)Nc1ccc(Sc2ccnc(Nc3ccc(N4CCS(=O)(=O)CC4)cc3)n2)cc1 [Compound 99, N-{4-[(2-{[4-(1,1-dioxo-1λ^6,4-thiomorpholin-4-yl)phenyl]ao}pyrimidin-4-yl)sulfanyl]phenyl}prop-2-enamide]
IC50 (human JAK2): > 1 µM | GI50 [1]: > 20 µM | IC50 (human JAK3): < 0.1 µM

C=CC(=O)Nc1ccc(Sc2nc(Nc3ccc(N4CCOCC4)cc3)ncc2Cl)cc1 [Compound 315, N-(4-(5-chloro-2-(4-morpholinophenylao)pyrimidin-4-ylthio)phenyl)acrylmide]
IC50 (human JAK2): > 1 µM | IC50 (CTLL2): < 1 µM | GI50 [1]: > 20 µM | IC50 (BaF3 wild-type cells): > 20 µM | IC50 (human JAK3): < 0.1 µM

CNC(=O)CCC(=O)Nc1ccc(Sc2nc(Nc3ccc(N4CCOCC4)cc3)ncc2C)cc1 [Compound 386, N1-methyl-N4-(4-(5-methyl-2-(4-morpholinophenylao)pyrimidin-4-ylthio)phenyl)succinamide]
IC50 (human JAK2): > 1 µM | IC50 (CTLL2): > 20 µM | GI50 [1]: > 20 µM | IC50 (BaF3 wild-type cells): > 20 µM | IC50 (human JAK3): < 0.5 µM

C=CC(=O)Nc1ccc(Sc2nc(Nc3ccc(N4CCOCC4)cc3)ncc2-c2ccccc2)cc1 [Compound 307, N-(4-(2-(4-morpholinophenylao)-5-phenylpyrimidin-4-ylthio)phenyl)acrylamide]
IC50 (human JAK2): > 1 µM | IC50 (CTLL2): > 20 µM | GI50 [1]: > 20 µM | IC50 (BaF3 wild-type cells): > 20 µM | IC50 (human JAK3): < 0.1 µM

O=C(CCl)Nc1cccc(Sc2ccnc(Nc3ccc(N4CCOCC4)cc3)n2)c1 [Compound 332, 2-chloro-N-(3-(2-(4-morpholinophenylao)pyrimidin-4-ylthio)phenyl)acetamide]
IC50 (human JAK2): > 1 µM | IC50 (CTLL2): < 5 µM | GI50 [1]: < 5 µM | IC50 (BaF3 wild-type cells): < 5 µM | IC50 (human JAK3): < 0.1 µM

C=CC(=O)Nc1cccc(Sc2ccnc(Nc3ccc(OC)cc3)n2)c1 [Compound 120, N-(3-(2-(4-methoxyphenylao)pyrimidin-4-ylthio)phenyl)acrylamide]
IC50 (human JAK2): > 1 µM | IC50 (CTLL2): < 5 µM | GI50 [1]: < 20 µM | IC50 (BaF3 wild-type cells): > 20 µM | IC50 (human JAK3): < 0.1 µM

C=CC(=O)Nc1ccc(Sc2ccnc(Nc3ccc(S(=O)(=O)NCc4ccccc4)cc3)n2)cc1 [Compound 368, N-(4-(2-(4-(N-benzylsulfamoyl)phenylao)pyrimidin-4-ylthio)phenyl)acrylamide]
IC50 (human JAK2): > 1 µM | IC50 (CTLL2): < 5 µM | GI50 [1]: < 20 µM | IC50 (BaF3 wild-type cells): < 20 µM | IC50 (human JAK3): < 0.1 µM

C=CC(=O)Nc1ccc(Sc2ccnc(Nc3ccc(C#N)cc3)n2)cc1 [Compound 131, N-(4-(2-(4-cyanophenylao)pyrimidin-4-ylthio)phenyl)acrylamide]
IC50 (human JAK2): > 1 µM | IC50 (CTLL2): < 20 µM | GI50 [1]: < 20 µM | IC50 (BaF3 wild-type cells): < 5 µM | IC50 (human JAK3): < 0.1 µM

C=CC(=O)Nc1ccc(Sc2nc(Nc3ccc(O)cc3)ncc2C)cc1 [Compound 282, N-(4-(2-(4-hydroxyphenylao)-5-methylpyrimidin-4-ylthio)phenyl)acrylamide]
IC50 (human JAK2): > 1 µM | IC50 (CTLL2): < 1 µM | GI50 [1]: < 20 µM | IC50 (BaF3 wild-type cells): < 20 µM | IC50 (human JAK3): < 0.1 µM

C=CC(=O)N(C)c1ccc(Sc2ccnc(Nc3ccc(N4CCOCC4)cc3)n2)cc1 [Compound 91, N-methyl-N-(4-(2-(4-morpholinophenylao)pyrimidin-4-ylthio)phenyl)acrylamide]
IC50 (human JAK2): > 1 µM | IC50 (CTLL2): < 1 µM | GI50 [1]: < 20 µM | IC50 (BaF3 wild-type cells): > 20 µM | IC50 (human JAK3): < 0.1 µM

C=CC(=O)Nc1ccc(Sc2ccnc(Nc3cccc(Cl)c3)n2)cc1 [Compound 348, N-(4-(2-(3-chlorophenylao)pyrimidin-4-ylthio)phenyl)acrylamide]
IC50 (human JAK2): > 1 µM | GI50 [1]: < 5 µM | IC50 (human JAK3): < 0.1 µM

C=CC(=O)Nc1ccc(Sc2nc(Nc3ccccc3O)ncc2C)cc1 [Compound 287, N-(4-(2-(2-hydroxyphenylao)-5-methylpyrimidin-4-ylthio)phenyl)acrylamide]
IC50 (human JAK2): > 1 µM | GI50 [1]: > 20 µM | IC50 (human JAK3): < 0.1 µM

COc1cc(Nc2nccc(Sc3ccc(NCC#N)cc3)n2)cc(OC)c1OC [Compound 52, 2-(4-(2-(3,4,5-trimethoxyphenylao)pyrimidin-4-ylthio)phenylao)acetonitrile]
IC50 (human JAK2): > 1 µM | GI50 [1]: < 5 µM

C=CC(=O)Nc1ccc(Sc2ccnc(Nc3ccc(C(=O)OC)cc3)n2)cc1 [Compound 357, methyl 4-(4-(4-acrylamidophenylthio)pyrimidin-2-ylao)benzoate]
IC50 (human JAK2): > 1 µM | GI50 [1]: < 5 µM | IC50 (human JAK3): < 0.1 µM

CC(=O)Nc1ccc(Sc2nc(Nc3ccc(N4CCOCC4)cc3)ncc2C)cc1 [Compound 135, N-(4-(5-methyl-2-(4-morpholinophenylao)pyrimidin-4-ylthio)phenyl)acetamide]
IC50 (human JAK2): > 1 µM | GI50 [1]: < 20 µM | IC50 (human JAK3): < 0.5 µM
